In patent US20100266681A1, “FATTY ACID ALCOHOLS” (priority 2006, published 2010):

Tested on: APOE*3Leiden mice
Experiment: Effects on lipid metabolism in vivo, APOE*3Leiden mice on Western-type diet
Settings: female heterozygous APOE*3Leiden mice, oral admix to Western-type diet, plasma after 4 hour fast, delta = level at t=0 minus level at t=3, doses 565 (Group 2), 497 (Group 3), 1 (Group 4) mg/kg bw/d
Experimental: The invented compositions were tested in an animal model as described below.
Female heterozygous APOE*3Leiden mice was used, and housed during the experiment in macrolon cages (three or four mice per cage), in clean-conventional animal rooms (relative humidity 50-60%, temperature ˜21° C., light cycle 7 am to 7 pm). Individual animals were marked by ear punch-holes. Mice were supplied with food and acidified tap water ad libitum.
The mice received a semi-synthetic modified Western-type diet (WTD) as described by Nishina et al (J Lipid Res 1990; 31: 859), containing cholesterol (0.25% w/w, final concentration) and 15% cacaobutter.
All test compounds were administered orally as admix to the Western-type diet. The lyophilized diet chunks were stored in vacuum bags in the dark in an alarm-secured −20° C. room. The diets on the cages of the mice were changed twice a week.
APOE*3Leiden mice were put on a semi-synthetic Western-type diet (WTD, 15% cocoa butter, 40% sucrose and 0.25% cholesterol; all w/w). After a 4 weeks run-in period low-responder mice were removed from the study and the remaining mice were sub-divided into five groups of 10 mice each, matched for plasma cholesterol, triglycerides, free fatty acids and age (t=0) […]
After 3 weeks of treatment (t=3 weeks) blood samples were taken after 4 hour-fast period and plasma total cholesterol (TC), total triglycerides (TG) were measured. […]

For CC(C)OC(=O)C(C)(C)Oc1ccc(C(=O)c2ccc(Cl)cc2)cc1 [Group 4, Fenofibrate], the “Delta cholesterol plasma levels (delta TC) after treatment period of 3 weeks, Mean (delta TC)” value was 4.71 and the “Delta triglyceride plasma levels (delta TG) after treatment period of 3 weeks, Mean (delta TG)” value was 1.16.
